The values that follow come from US11926580B2, “Hydropersulfide precursors” (THE JOHNS HOPKINS UNIVERSITY, priority 2018, dated 2024).

A short description of data set [1]: Kinetics of RSSH generation by 1H NMR with NEM trapping. The class given is physicochemical. The following applies: pH 7.4 buffer with 20% MeOD.
Test in data set [2]: as above
In kind it is physicochemical. As to conditions: 10% D2O, 37° C.; for half-life at 1 mM: phosphate buffer, NEM, pH 7.4 buffer, read-out: half-life of precursor; for t1//2 (mm) / Hydropersulfide Yield (%) (RSS-NEM adduct): precursor 1 mM, NEM 20 mM, pH 7.4 phosphate buffer; for Hydropersulfide Yield (%) (RSS-NEM adduct): based upon % precursor consumed. The procedure:
FIGS. 3a and 3b provide graphs of (a) Stacked ^1H NMR spectra showing the decomposition of precursor 4d (1 mM) with NEM (20 mM) in 10% D2O, phosphate buffer (PB), pH 7.4 at 37° C. to produce RSS-NEM adduct 5a; Precursor 4d was introduced to a solution of NEM in PB at t=0 min and following equilibration and shimming, the first 1H NMR spectrum was obtained after 6 min.; and (b) The kinetics of decomposition of 4d (circles represent the —CH3 protons (Ha) of the precursor) and formation of 5a (squares represent the diasterotopic protons (Hb) of the succinimide ring of the two product diastereomers).
Next, ^1H NMR spectroscopy was used to monitor the kinetics of RSSH generation from 4d by trapping with NEM in 10% D2O, pH 7.4 buffer containing DMSO as an internal standard at 37° C. An increase in the peak intensity attributed to one of the diasterotopic protons of the succinimide ring of the two product diastereomers (Hb, δ2.99-2.91 ppm) was observed (FIG. 3a). The other diasterotopic proton (Hc, δ3.30-3.21 ppm) overlaps with N-ethylmaleamic acid (NEMA), a product derived from NEM hydrolysis. Similarly, the intensity of two methyl group protons of precursor 4d (δ1.44 and 1.41 ppm) decreased as four methyl group protons of the two diastereomers of 5a (Ha, δ1.40, 1.37 ppm and 1.40, 1.34 ppm) increased, supporting the clean conversion of 4d to 5a. The ^1H NMR peak assignments for 5a are consistent with the RSS-NEM adduct formed during S-methoxycarbonyl penicillamine disulfide (MCPD) decomposition (Scheme 1, eq. 3) in the presence of NEM.
All starting materials were of reagent grade and used without further purification. N-acetyl-D-penicillamine, N-ethylmaleimide, N-ethylmaleamic acid, and phenylcyanamide were purchased from Sigma-Aldrich and used without further purification. Thiourea and N-substituted thioureas were purchased from Alfa Aesar and Oakwood Chemicals. Deuterated solvents (Cambridge Isotope Laboratories) were used for NMR spectroscopic analyses. NMR spectra were obtained on a 400 MHz FT-NMR spectrometer. All chemical shifts are reported in parts per million (ppm) relative to residual CHCl3 (7.26 ppm for ^1H, 77.2 ppm for ^13C), residual H2O (4.79 ppm for ^1H), residual DMSO (2.50 ppm for ^1H, 39.5 for ^13C), or residual MeOH (3.31 ppm for ^1H, 49.2 ppm for ^13C). The kinetics of RSSH generation were measured using a Varian Inova 800 MHz spectrometer. UPLC-MS analysis was carried out with a Waters Acquity/Xevo-G2 UPLC-MS system equipped with an ACQUITY UPLC BEH C18 column (2.1 mm×50 mm, 1.7 μm). The mass signals for products of hydropersulfide trapping with NEM were obtained via deconvolution using MassLynx 4.1 software. The pH measurements were performed using a Fisher Scientific Accumet AB15 pH-meter. Analytical thin layer chromatography (TLC) was performed on Sigma-Aldrich silica gel on TLC A1 foils with fluorescent indicator F254 plates. Visualization was accomplished with UV light (254 nm) or staining with KMnO4. Flash column chromatography was performed using SiliaFlash P60 (230-400 mesh) silica gel. Melting points were recorded using MEL-TEMP® capillary melting point apparatus and are uncorrected.

The nature of data set [3]: UPLC-MS analysis of RSSH trapping with N-ethylmaleimide. In kind it is physicochemical. As to conditions: for RSSH generation (RSS-NEM adduct formation): NEM trap. The procedure: FIGS. 2a and 2b provide graphs of (a) UPLC-MS chromatograms of RSSH generation from 4d (200 μM) in the presence of NEM (4 mM) incubated in pH 7.4 ammonium bicarbonate (100 mM) with DTPA (100 μM) at 37° C. A peak at 3.7 min corresponding to N-ethylmaleamic acid (NEMA), derived from NEM hydrolysis, was observed under these conditions (see SI); (b) MS spectrum (ESI+ mode) of the product eluting at 5.06 min corresponding to 5a with m/z 349.0885 (expected m/z 349.0886).
FIG. 5 provides a graph of UPLC-MS chromatograms of RSSH generation from compound 1 (1 mM) in the presence of NEM (5 mM) incubated in pH 7.4 ammonium bicarbonate buffer containing DTPA (100 μM) for 30 min at 37° C. The asterisk indicates the methyl ester analogue of dialkyl trisulfide 2, which was also formed due to the presence of minor amount of methyl ester analogue of 1. A peak at 3.7 min corresponding to N-ethylmaleamic acid (NEMA), derived from NEM hydrolysis, was observed under these conditions.
RSSH trapping in the presence of N-ethylmaleimide (NEM) was carried out with a Waters Acquity/Xevo-G2 UPLC-MS system equipped with an ACQUITY UPLC BEH C18 column (2.1 mm×50 mm, 1.7 μm). Typically, RSSH precursor (1 eq) was incubated with NEM (5 to 20 eq) in freshly prepared pH 7 4 ammonium bicarbonate buffer (100 mM) containing DTPA (100 μM) at 37° C. An aliquot of the reaction mixture (300 μL) was withdrawn at specified time points, quenched with 0.25% formic acid (300 μL), and filtered through a 0.22 μm filter. The samples were then loaded into vials in an autosampler maintained at 4° C. and analyzed using UPLC-MS as follows: Mobile phase: 0-1 min 90% water+0% ACN+10% formic acid (0.1%); 1-7.5 min gradient up to 10% water+80% ACN+10% formic acid (0.1%); 7.5-8.4 min 10% water+80% ACN+10% formic acid (0.1%); 8.4-8.5 min gradient up to 90% water+0% ACN+10% formic acid (0.1%), 8.5-10 min 90% water+0% ACN+10% formic acid (0.1%). Flow rate=0.3 mL min^−1. The mass signals for products of RSSH trapping with NEM were obtained via deconvolution using MassLynx 4.1 software.
To a solution of NEM (5 mM) in pH 7 4 ammonium bicarbonate (100 mM) with DTPA (100 μM) in a 20-mL scintillation vial, hydropersulfide precursor 1 (1 mM, total reaction volume 3 mL) was added. The resulting mixture was incubated at 37° C. for 30 min. An aliquot of 300 μL reaction mixture was withdrawn, quenched with 300 μL of formic acid (0.25%) and analyzed using UPLC-MS.

Data set [4] relates to cardiomyocyte H9c2 cells. The data set is described as follows: Cytotoxicity / cell viability assay with Cell Counting Kit-8. The class given is cell-based. The following applies: up to 200 μM, 24 h, CCK-8. The procedure:
(§1) FIGS. 6a and 6b provide graphs of (a) the cell viability of cardiomyocyte H9c2 cells following incubation of the RSSH precursor 4d (50 μM) and phenylcynamide (200 μM) for 24 h; and (b) the cytoprotective effects of the RSSH precursor 4d observed following pretreatment of H9c2 cells with either 4d (50 μM) or phenylcynamide (200 μM) for 2 h, followed by hydrogen peroxide (200 μM) treatment for 2 h. Quantification of cell viability was carried out using Cell Counting Kit-8 (CCK-8). Results are expressed as the mean±SEM (n=6).
The cytotoxicity and impact on cell viability of the hydropersulfide (RSSH) precursor 4d have been examined using the cardiomyocyte H9C2 cell line and Cell Counting Kit-8 (CCK-8). A cell viability assay reveled that 4d was not cytotoxic at 50 μM ([…]).
On the technique in general: Tetrazolium dyes change colour on reduction, which living cells bring about.

Data set [5] concerns cardiomyocyte H9c2 cells. The data set is described as follows: Cytoprotection against hydrogen peroxide-induced cytotoxicity. In kind it is cell-based. As to conditions: pretreatment 2 h (4d 50 μM; phenyl cyanamide 200 μM), then H2O2 200 μM 2 h, CCK-8. Here is the method:
as §1
Since hydropersulfides are reported to mitigate oxidative stress, the ability of RSSH precursor 4d to protect cardiomyocyte H9c2 cells from cytotoxicity induced by hydrogen peroxide (H2O2) was tested.

As a reminder, the melting point is the temperature, or range, at which the solid turns liquid. The term half-life denotes the time in which the quantity being followed falls by half.

The structures appear in SMILES notation. Several values for one entry are separate records, joined by “and”; a condition that tells them apart may be missing. Identical values can stand only once.

Compound `CC(=O)NC(C(=O)O)C(C)(C)SSC(=N)Nc1ccc(C(F)(F)F)cc1.Cl` (centres unmarked) [Precursor 4h, ((1-acetamido-1-carboxy-2-methylpropan-2-yl)disulfaneyl)((4-(trifluoromethyl)phenyl)amino)methaniminium chloride] came in with a melting point of 151 to 153 °C. In data set [1] (NEM, 37° C.), the “Hydropersulfide Yield (%) (RSS-NEM adduct)” value (“Hydropersulfide Yield (%)” for short) is 95% and 95 ± 2^d %; the “t1//2 (mm)” value stood at 6.8 ± 0.2 min. In addition, the half-life in data set [1] (pH 7.4, read-out: half-life of precursor) was determined as 6.8 min.
Compound `CC(=O)NC(C(=O)O)C(C)(C)SSC(=N)Nc1ccc(Cl)cc1.Cl` (centres unmarked) [Precursor 4g, ((1-acetamido-1-carboxy-2-methylpropan-2-yl)disulfaneyl)((4-chlorophenyl)amino) methaniminium chloride] displayed a melting point of 143 to 145 °C. In data set [2], the half-life at 1 mM amounted to 9.3 min; the “t1//2 (mm)” value was 9.3 ± 0.6 min; the “Hydropersulfide Yield (%)” value is 91% and 91 ± 1%.
For the compound `COC(=O)C(NC(C)=O)C(C)(C)SSC(=N)N.Cl` (centres unmarked) [Precursor 4c, ((3-acetamido-4-methoxy-2-methyl-4-oxobutan-2-yl)disulfaneyl)(amino)methaniminium chloride], the melting point fell in the range of 190 to 192 °C. In data set [3] (decomposition in the presence of NEM, UPLC-MS), the “RSS-NEM adduct 5b yield” value is “less than 50%”.
For the compound `COc1ccc(NC(=N)SSC(C)(C)C(NC(C)=O)C(=O)O)cc1.Cl` (centres unmarked) [Precursor 4e, ((1-acetamido-1-carboxy-2-methylpropan-2-yl)disulfaneyl)((4-methoxyphenyl)amino) methaniminium chloride], the melting point was in the range of 142 to 144 °C. In addition, in data set [2], the half-life at 1 mM worked out at 5 min; the “t1//2 (mm)” value worked out at 5.0 ± 0.5 min; the “Hydropersulfide Yield (%)” value is 75% and 75 ± 2%.
Regarding `CC(=O)NC(CSSC(=N)N)C(=O)O.Cl` (centres unmarked) [Precursor 1, ((2-acetamido-2-carboxyethyl)disulfaneyl)(amino)methaniminium chloride], the melting point is 70 to 72 °C. Moreover, the disappearance of precursor result in data set [3] (1 mM with NEM 5 mM, pH 7.4 buffer, 37° C., 30 min) was “complete disappearance”. Also, the “RSSH generation (RSS-NEM adduct formation)” value (“RSSH generation” below) in data set [3] (pH 7.4 buffer, 37° C., UPLC-MS) is “no evidence of persulfide-NEM adduct formation”.
With `CC(=O)NC(C(=O)O)C(C)(C)SSC(=N)Nc1ccccc1Cl.Cl` (centres unmarked) [Precursor 4f, ((1-acetamido-1-carboxy-2-methylpropan-2-yl)disulfaneyl)((2-chlorophenyl)amino) methaniminium chloride], the melting point lay within 152 to 154 °C. In data set [2], the half-life at 1 mM came to 17.3 min; the “t1//2 (mm)” value is listed as 173 ± 0.4 min; the “Hydropersulfide Yield (%)” value was 95% and 95 ± 2%.
Take `CC(=O)NC(C(=O)O)C(C)(C)SSC(=N)N.Cl` (centres unmarked) [Precursor 4a, ((1-acetamido-1-carboxy-2-methylpropan-2-yl)disulfaneyl)(amino)methaniminium chloride]: the melting point was 154 to 156 °C. Further, the “RSSH generation” value in data set [3] (pH 7.4 buffer, 37° C., UPLC-MS) is recorded as “formation of RSS-NEM 5a”.
In turn, `CNC(=N)SSC(C)(C)C(NC(C)=O)C(=O)O.Cl` (centres unmarked) [Precursor 4b, ((1-acetamido-1-carboxy-2-methylpropan-2-yl)disulfaneyl)(methylamino) methaniminium chloride] displayed a melting point of 153 to 155 °C. The “RSSH generation” value in data set [3] (pH 7.4 buffer, 37° C., UPLC-MS) is reported as “reduced compared with that from 4a”.
Take `N#CNc1ccccc1` [phenyl cyanamide, reference compound]: in data set [4], the “tolerability (cell viability)” value is “well tolerated”. In addition, the “cytoprotection from H2O2-induced cytotoxicity” value in data set [5] is on record as “did not protect”.
Turning to `CC(C)(C)SSC(=N)Nc1ccccc1.Cl` [Precursor 9, (t-butyldisulfaneyl)(phenylamino)methaniminium chloride], in data set [2], the half-life at 1 mM turned out to be 17.3 min and the “Hydropersulfide Yield (%)” value worked out at 97%.
